According to ChEMBL document CHEMBL1201862, “PubChem BioAssay data set” (2004):
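Grown in 96-well plates, cells were treated for 48 hours with each compound at five concentrations. Insufficient inhibition: endpoint recorded as highest concentration tested. Abbreviation: GI50, concentration required for 50% inhibition of growth.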 Calls of active or inactive are those of the source. Cut-off read from the data, not from the text of the source: active = GI50 up to about 1.1 µM and inactive = higher.

Experiments:
Assay in all cases: NCI-60 cell line screen, 48 h
[1] = test system: 786-0
[2] = test system: COLO 205
[3] = test system: DU-145
[4] = test system: HOP-62
[5] = test system: IGROV-1
[6] = test system: LOX IMVI
[7] = test system: MDA-MB-231
[8] = test system: MDA-MB-435
[9] = test system: NCI-H226
[10] = test system: NCI-H23
[11] = test system: NCI-H522
[12] = test system: OVCAR-3
[13] = test system: OVCAR-5
[14] = test system: OVCAR-8
[15] = test system: RPMI-8226
[16] = test system: SF-295
[17] = test system: SF-539
[18] = test system: SNB-75
[19] = test system: TK-10
[20] = test system: UO-31

Row | Compound | GI50 [1] | GI50 [2] | GI50 [3] | GI50 [4] | GI50 [5] | GI50 [6] | GI50 [7] | GI50 [8] | GI50 [9] | GI50 [10] | GI50 [11] | GI50 [12] | GI50 [13] | GI50 [14] | GI50 [15] | GI50 [16] | GI50 [17] | GI50 [18] | GI50 [19] | GI50 [20]
1 | COC(=O)CNC(=O)/C=C/[C@H](O[Si](C)(C)C(C)(C)C)[C@H](/C=C/C(=O)NCC(=O)OC)O[Si](C)(C)C(C)(C)C | > 25 µM (inactive) | > 25 µM (inactive) | > 25 µM (inactive) | > 25 µM (inactive) | > 25 µM (inactive) | > 25 µM (inactive) | > 25 µM (inactive) | > 25 µM (inactive) | > 25 µM (inactive) | > 25 µM (inactive) | > 25 µM (inactive) | > 25 µM (inactive) | > 25 µM (inactive) | > 25 µM (inactive) | > 25 µM (inactive) | > 25 µM (inactive) | > 25 µM (inactive) | > 25 µM (inactive) | > 25 µM (inactive) | > 25 µM (inactive)
2 | O=C1/C(=C/c2ccc(O)cc2)CCC1CNc1ccccc1 (stereo not given) | 6.9 µM (inactive) | 11.1 µM (inactive) | 12.3 µM (inactive) | 18.3 µM (inactive) | 11.3 µM (inactive) | 8.38 µM (inactive) | 14.4 µM (inactive) | 18.7 µM (inactive) | 17.9 µM (inactive) | 14.3 µM (inactive) | 2.4 µM (inactive) | 14.6 µM (inactive) | 17.7 µM (inactive) | 16 µM (inactive) | 1.15 µM (inactive) | 15.9 µM (inactive) | 16.1 µM (inactive) | 26.2 µM (inactive) | 10.2 µM (inactive) | 15.6 µM (inactive)
3 | NC(=O)C1CCCNC1 (stereo not given) | > 100 µM (inactive) | > 100 µM (inactive) | > 100 µM (inactive) | > 100 µM (inactive) | > 100 µM (inactive) | > 100 µM (inactive) | > 100 µM (inactive) | > 100 µM (inactive) | > 100 µM (inactive) | > 100 µM (inactive) | > 100 µM (inactive) | > 100 µM (inactive) | > 100 µM (inactive) | > 100 µM (inactive) | > 100 µM (inactive) | > 100 µM (inactive) | > 100 µM (inactive) | > 100 µM (inactive) | > 100 µM (inactive) | > 100 µM (inactive)
4 | CC(O)c1cc2c(s1)C(=O)c1sccc1C2=O (stereo not given) | 0.303 µM (active) | 0.574 µM (active) | 0.0202 µM (active) | 0.163 µM (active) | 0.248 µM (active) | 0.0247 µM (active) | 0.172 µM (active) | 0.0203 µM (active) | 0.207 µM (active) | 0.0155 µM (active) | 0.148 µM (active) | 0.187 µM (active) | 0.186 µM (active) | 0.191 µM (active) | 0.184 µM (active) | 0.0792 µM (active) | 0.0401 µM (active) | 0.0902 µM (active) | 0.213 µM (active) | 0.185 µM (active)
5 | CCCCC(=O)OCC(=O)[C@]1(O)Cc2c(O)c3c(c(O)c2[C@@H](OC2CC(NC(=O)C(F)(F)F)C(O)C(C)O2)C1)C(=O)c1c(OC)cccc1C3=O (stereo not given in full) | 0.232 µM (active) | 1.11 µM (active) | 0.365 µM (active) | 0.183 µM (active) | 0.794 µM (active) | 0.163 µM (active) | 3 µM (inactive) | 2.07 µM (inactive) | 0.0401 µM (active) | 0.351 µM (active) | 0.736 µM (active) | 2.96 µM (inactive) | 1.52 µM (inactive) | 0.519 µM (active) | 0.181 µM (active) | 0.308 µM (active) | 0.387 µM (active) | 1.02 µM (active) | 2.47 µM (inactive) | 1.06 µM (active)
6 | O=C(/C=C/c1ccccc1)OCC1=C[C@@H](O)[C@@H]2C=CO[C@@H](OC3OC(CO)C(O)C(O)C3O)[C@H]12 (stereo not given in full) | > 100 µM (inactive) | > 100 µM (inactive) | > 100 µM (inactive) | > 100 µM (inactive) | > 100 µM (inactive) | > 100 µM (inactive) | > 100 µM (inactive) | > 100 µM (inactive) | > 100 µM (inactive) | > 100 µM (inactive) | > 100 µM (inactive) | > 100 µM (inactive) | > 100 µM (inactive) | > 100 µM (inactive) | > 100 µM (inactive) | > 100 µM (inactive) | > 100 µM (inactive) | > 100 µM (inactive) | > 100 µM (inactive) | > 100 µM (inactive)
7 | CC1CC(=O)N(N(C)C)C(C#N)(C#N)C1(C#N)C#N (stereo not given) | 12.2 µM (inactive) | 3 µM (inactive) | 18.2 µM (inactive) | 26.1 µM (inactive) | 20.2 µM (inactive) | 17 µM (inactive) | 15.2 µM (inactive) | 17 µM (inactive) | 28.1 µM (inactive) | 20 µM (inactive) | 2.77 µM (inactive) | 20.5 µM (inactive) | 23.9 µM (inactive) | 20.9 µM (inactive) | 4.14 µM (inactive) | > 50.1 µM (inactive) | 24.2 µM (inactive) | > 35.6 µM (inactive) | 16 µM (inactive) | 16.9 µM (inactive)
8 | CC(C)(C)[Si](C)(C)OCC1OC(n2ccc(=O)[nH]c2=O)C(O[Si](C)(C)C(C)(C)C)[C@@]12O[C@H]2C(N)=O (stereo not given in full) | 5.11 µM (inactive) | 7.64 µM (inactive) | 4.03 µM (inactive) | 13.8 µM (inactive) | 2.86 µM (inactive) | 3.4 µM (inactive) | 4.61 µM (inactive) | 4.92 µM (inactive) | 0.445 µM (active) | 12.2 µM (inactive) | 2.22 µM (inactive) | 11.5 µM (inactive) | 11.8 µM (inactive) | 5.11 µM (inactive) | 6.17 µM (inactive) | 4.56 µM (inactive) | 3.05 µM (inactive) | 10.1 µM (inactive) | 20.2 µM (inactive) | 7.36 µM (inactive)
9 | C=C(C(=O)OC1C(CO)OC(OCC2CC[C@@H]3C[C@]4(OC(=O)C3=C)C(C)=CC(=O)C24)C(O)C1O)[C@@H]1CCC(CO)C2C(=O)C=C(C)[C@@]2(O)C1 (stereo not given in full) | 1.63 µM (inactive) | 0.28 µM (active) | 3.61 µM (inactive) | 9.4 µM (inactive) | 2.79 µM (inactive) | 2.18 µM (inactive) | 1.64 µM (inactive) | 2.09 µM (inactive) | 6.58 µM (inactive) | 1.63 µM (inactive) | 0.243 µM (active) | 2.02 µM (inactive) | 2.7 µM (inactive) | 1.43 µM (inactive) | 0.356 µM (active) | 17.1 µM (inactive) | 0.482 µM (active) | 13.8 µM (inactive) | 3.07 µM (inactive) | 1.76 µM (inactive)
10 | COC(=O)CCC(C)[C@H]1CCC2C3C(C[C@H](OC(C)=O)[C@@]21C)[C@@]1(C)CCC2(C[C@H]1C[C@H]3OC(C)=O)OOC1(CCCCC1)OO2 (stereo not given in full) | 15.1 µM (inactive) | 24.7 µM (inactive) | 41.5 µM (inactive) | 2.99 µM (inactive) | 5.2 µM (inactive) | 11.5 µM (inactive) | 18 µM (inactive) | 36.2 µM (inactive) | 17.7 µM (inactive) | 12.7 µM (inactive) | 9.33 µM (inactive) | 40.5 µM (inactive) | 43.5 µM (inactive) | 17.6 µM (inactive) | 1.99 µM (inactive) | 20.7 µM (inactive) | 60.1 µM (inactive) | 21.2 µM (inactive) | > 100 µM (inactive) | 5.73 µM (inactive)
11 | CCOP(=O)(OCC)c1cc2cc(O)ccc2oc1=O | > 100 µM (inactive) | > 100 µM (inactive) | > 100 µM (inactive) | > 100 µM (inactive) | > 100 µM (inactive) | > 100 µM (inactive) | > 100 µM (inactive) | > 100 µM (inactive) | > 100 µM (inactive) | > 100 µM (inactive) | > 100 µM (inactive) | > 100 µM (inactive) | > 100 µM (inactive) | > 100 µM (inactive) | > 100 µM (inactive) | > 100 µM (inactive) | > 100 µM (inactive) | > 100 µM (inactive) | > 100 µM (inactive) | 0.0112 µM (active)
12 | CN(C)CCCN1C(=S)N(CCCN(C)C)c2c3ccccc3nc3c([N+](=O)[O-])ccc1c23 | 4.82 µM (inactive) | 1.71 µM (inactive) | 6.44 µM (inactive) | 8.95 µM (inactive) | 3.06 µM (inactive) | 4.42 µM (inactive) | 10.4 µM (inactive) | 5.47 µM (inactive) | 8.02 µM (inactive) | 9.08 µM (inactive) | 1.77 µM (inactive) | 6.21 µM (inactive) | 13.8 µM (inactive) | 5.31 µM (inactive) | 6.81 µM (inactive) | 8.38 µM (inactive) | 5.04 µM (inactive) | 7.46 µM (inactive) | 10 µM (inactive) | 5.66 µM (inactive)
13 | COC(=O)CC1C2(C)C3=C(C)C(c4ccoc4)CC3OC2C2OC(=O)C3(C)C=CC(=O)C1(C)C23 (stereo not given) | 0.869 µM (active) | 1.3 µM (inactive) | 0.76 µM (active) | 3.28 µM (inactive) | 0.953 µM (active) | 0.986 µM (active) | 1.22 µM (inactive) | 0.656 µM (active) | 2.13 µM (inactive) | 1.57 µM (inactive) | 0.575 µM (active) | 1.35 µM (inactive) | 2.3 µM (inactive) | 1.02 µM (active) | 0.34 µM (active) | 3.22 µM (inactive) | 0.869 µM (active) | 3.01 µM (inactive) | 2.28 µM (inactive) | 1.19 µM (inactive)
